Source: patent US6713512B1, “Uses of kombic acid as an anticancer and cholesterol-lowering agent” (priority 2001, dated 2004)
≈ marks a conversion by molar mass, not a printed value. Where “and” joins values, the source holds several entries; their conditions need not be identical. Identical values can stand only once. Like-named read-outs stand apart in the source and are kept apart here.

Legend:
[1] = system: Rat liver microsomes lipid peroxidation; assay: Lipid peroxidation in rat liver microsomes induced by ascorbic acid and ferrous sulfate (MDA/thiobarbituric acid); assay type: biochemical; settings: for IC50: concentration required to inhibit lipid peroxidation by 50%, obtained by plotting
Experimental: Rat liver microsomes, previously incubated with or without inhibitor, were treated with ascorbic acid and ferrous sulfate to induce lipid peroxidation. The extent of lipid peroxidation was determined by the amount of malondialdehyde produced, which was determined by reaction with thiobarbituric acid.
Biological specimens contain a mixture of thiobarbituric acid reactive substances (TBARS), including lipid hydroperoxides and aldehydes, which increase as a result of oxidative stress. TBARS return to normal levels over time, depending upon the presence of antioxidants. In practice, TBARS are expressed in terms of malondialdehyde (MDA) equivalents. In this assay, an MDA standard is used to construct a standard curve against which unknown samples can be plotted. The presence of this compound is measured by fluorometry or spectrophotometry.

[2] = system: Human low density lipoprotein; assay: Copper-induced lipid peroxidation of human low density lipoprotein (MDA/thiobarbituric acid); assay type: biochemical; settings: for antioxidant activity compared with natural vitamin E: result in words; for IC50: 10 μM copper
Experimental: Human low density lipoprotein was dialyzed, incubated with or without inhibitor, and then treated with 10 μM copper to induce lipid peroxidation for several hours. The extent of lipid peroxidation was determined by the amount of malondialdehyde produced, which was determined by reaction with thiobarbituric acid as described above.

[3] = Oxygen Stability Index of edible oil; assay type: physicochemical; settings: for antioxidant effectiveness in edible oil: result in words; for Hours to end-point: 110° C.
Experimental: The Oxygen Stability Index is used to measure the effectiveness of antioxidants in the stabilization of edible oils against oxidative degradation. The “Hours to end-point” indicate when a time/conductivity curve changes shape, with a sharp slope upturn at that time point. The temperature of the test, which measures conductivity of a solution into which oxidation products from the oil being tested is passed, is 110° C.

[4] = system: Ehrlich carcinoma, sarcoma 180, implanted murine carcinoma (IMC) tumors, Meth-A fibrosarcoma; assay: Survival of mice bearing tumor cells; assay type: in vivo; settings: injected intraperitoneally
Source text: Such mice bearing tumor cells include, but are not limited to Ehrlich carcinoma, sarcoma 180, or implanted murine carcinoma (IMC) tumors, Meth-A fibrosarcoma or other tumors.

[5] = system: MDA-MB-435 estrogen receptor-negative human breast cancer cells; assay: [3H] thymidine incorporation, estrogen receptor-negative cells; assay type: cell-based
Experimental: Human cancer cells, such as, but not limited to, MDA-MB-435 estrogen receptor-negative human breast cancer cells are incubated in the presence of varying concentrations of kombic acid or its derivatives. The incorporation of [^3H] thymidine into the DNA of the cells is measured.

[6] = system: MCF-7 estrogen receptor-positive human breast cancer cells; assay: Proliferation of estrogen receptor-positive cells; assay type: cell-based; settings: alone
Experimental: Human breast cancer cells are incubated in the presence and absence of kombic acid and its derivatives individually. The IC50 (the concentration of Kombic Acid or its derivatives required to inhibit cell proliferation by 50%) is then determined.

MCF-7 cells = assay: Effect of excess estrogen on inhibition in steroid-depleted cells; assay type: cell-based, human; settings: presence of estradiol
Source text: The effect of Kombic Acid and its derivatives on the estrogen receptor is investigated. Human cancer cells in culture, such as, but not limited to, MCF-7 cells are depleted of steroids and treated with Kombic Acid, its derivatives, tocotrienols, or tamoxifen (used as a positive control) in the presence or absence of estradiol.

PKC = assay: Protein kinase C activity; assay type: biochemical
[7] = system: PAP2 (ras-transformed NIH 3T3 mouse fibroblasts) cells; assay: Proliferation of PAP2 cells; assay type: cell-based
[8] = Cholesterol lowering in animal models; assay type: in vivo
Source text: (§1) Hypercholesterolemia associated with elevated LDL (low-density lipoprotein) cholesterol is a risk factor for CHD (coronary heart disease). LDL-cholesterol combined with oxidative stress can contribute to the formation and development of atherosclerotic plaques. To lower the risk of CHD, antioxidants such as Kombic Acid and its derivatives counteract LDL oxidation.

[9] = Plasma cholesterol and apoB in humans; assay type: in vivo
Source text: as §1

HepG2 cells = assay: Medium apoB of LDL-like lipoprotein secreting cells (ELISA); assay type: cell-based; settings: nontoxic concentrations, serum-free medium
Experimental: The apoB-lowering potential of Kombic Acid and its derivatives is evaluated in cells that secrete and catabolize lipoproteins similar to LDL, for example, but not limited to HepG2 cells. Confluent cells are preincubated in serum-free medium, which inhibits cell proliferation and stimulates biosynthesis of LDL-like lipoproteins. They are subsequently incubated in the same medium in the presence or absence of Kombic Acid or its derivatives at the range of nontoxic concentrations. For each compound, the highest nontoxic concentration is predetermined by a viability assay, such as but not limited to the 3-(4,5-dimethylthiazol-2-yl)-2,5-diphenyltetrazolium bromide (MTT) viability assay. At the end of the incubation, changes in medium concentration of apoB B are evaluated by ELISA and compared with changes induced in the absence of kombic acid or its derivatives.

[10] = inhibitor concentration 0.156 μg/mL
[11] = inhibitor concentration 0.313 μg/mL
[12] = inhibitor concentration 0.625 μg/mL
[13] = inhibitor concentration 0.625 μg/mL, peroxidation (nmoles MDA) with inhibitor divided by without
[14] = read-out: IC50: mean +/− Standard Deviation
[15] = individual determinations, read-out: IC50: data

## Cc1c(C)c2c(c(C)c1O)CCC(C)(CCCC(C)CCCC(C)CCCC(C)C)O2 (racemic) [dl-α-tocopherol, reference compound]
[1]
  IC50: 0.31 µg/mL (≈ 0.72 µM)
[1]; [10]
  % Inhibition: 8%
  Remaining lipid peroxidation (fraction of control): 0.92
[1]; [11]
  % Inhibition: 50%
  Remaining lipid peroxidation (fraction of control): 0.50
[1]; [12]
  % Inhibition: 66%
[1]; [13]
  Remaining lipid peroxidation (fraction of control): 0.34
[2]
  antioxidant activity compared with natural vitamin E: inhibit peroxidation equally as well as natural (d) vitamin E

## CC(=CCCC(C)=CCc1cc(O)cc(C)c1O)CCC=C(C)CCC=C(C)C(=O)O [Kombic Acid, 16(2′,5′-dihydroxy-3′-methylphenyl)-2,6,10,14-tetramethyl-2,6,10,14-hexadecatetraenoic acid]
[1]
  IC50: 0.20 µg/mL (≈ 0.469 µM)
[1]; [10]
  % Inhibition: 36%
  Remaining lipid peroxidation (fraction of control): 0.64
[1]; [11]
  % Inhibition: 89%
  Remaining lipid peroxidation (fraction of control): 0.11
[1]; [12]
  % Inhibition: 90%
[1]; [13]
  Remaining lipid peroxidation (fraction of control): 0.10
[1]; result in words
  antioxidant activity: very strong antioxidant activity
[2]; [14]
  IC50: 5.2 µM
[2]; [15]
  IC50: 7.8 µM and 2.1 µM and 2.2 µM and 8.5 µM and 5.2 µM
[2]
  antioxidant activity compared with natural vitamin E: no significant difference in antioxidant activity
[3]
  antioxidant effectiveness in edible oil: effective antioxidants
[3]; soybean oil + 40 ppm
  Hours to end-point: 8.35 h and 8.85 h
[3]; soybean oil + 300 ppm
  Hours to end-point: 15.55 h and 15.40 h
[4]
  life of mice bearing tumor cells: prolong the life of mice bearing tumor cells
[5]; alone
  proliferation ([3H] thymidine incorporation): inhibit the proliferation of these cells
[5]; with tamoxifen
  interaction with tamoxifen: can act synergistically with tamoxifen
[6]
  cell proliferation: can inhibit the proliferation
MCF-7 cells
  reversal of inhibition by excess estrogen: does not reverse the inhibition
PKC
  PKC activity: inhibitors of PKC activity
[7]
  cell proliferation: inhibit the proliferation of these cells
[8]
  cholesterol-lowering effects: produce cholesterol-lowering effects in animal models
[9]
  plasma total and LDL cholesterol and apoB: effective in reducing elevated plasma levels of total and LDL cholesterol as well as plasma apolipoprotein B (apoB) concentrations
HepG2 cells
  medium apoB: dose-dependent reduction of medium apoB B

## CC(C)(C)c1cc(O)ccc1O [TBHQ, tributyl-tert-hydroquinone, reference compound]
[3]
  antioxidant effectiveness in edible oil: effective antioxidants
[3]; soybean oil + 200 ppm
  Hours to end-point: 21.10 h and 19.85 h

## Cc1c(C)c2c(c(C)c1O)CC[C@@](C)(CCC[C@H](C)CCC[C@H](C)CCCC(C)C)O2 [d-α-tocopherol, reference compound]
[2]; [14]
  IC50: 4.6 µM
[2]; [15]
  IC50: 5.1 µM (2×) and 3.5 µM

## CC/C(=C(\c1ccccc1)c1ccc(OCCN(C)C)cc1)c1ccccc1 [tamoxifen]
MCF-7 cells
  reversal of inhibition by excess estrogen: does reverse the inhibition

## tocotrienols
MCF-7 cells
  reversal of inhibition by excess estrogen: does not reverse the inhibition
